# Laboratory results taken from patent US6187296A, “Lysine decarboxylase inhibitors for the prevention and treatment of periodontal disease” (priority 2000, dated 2001).
# Assays:
# lysine decarboxylase [1] = conditions: Mycoplasma dispar; cited from earlier work
# lysine decarboxylase [2] = target: T1, lysine decarboxylase (Selenomonas ruminantium, UniProt O50657); conditions: cited from earlier work
# T1 construct: host or cells: Selenomonas ruminantium
# HL60 cells = assay type: cell-based; conditions: FIG. 3; control 0.22 mM lysine; 0.72 mM lysine and/or 0.42 mM EACA
# Description: Graphs show the percent growth inhibition after 96 h (2A) and the percent lysine remaining (2B) after 40 h incubation (obtained as described in legend to FIG. 1).
# lysine decarboxylase [3] = target: lysine decarboxylase (Eikenella corrodens, UniProt Q9Z4R7); assay: Cadaverine production by E. corrodens extract as a function of initial lysine concentration; assay type: biochemical; conditions: 0.42 mM EACA
# Description: FIGS. 4A and 4B are graphs showing cadaverine production as a function of initial lysine concentration in the presence and absence of […] ε-amino-n-caproic acid (EACA). […] Initial rate of cadaverine produced (from 0.3 μg E. corrodens extract protein/ml) graphed against the initial lysine concentration. A. Cadaverine produced after 20 min: Enzyme only: .circle-solid.-.circle-solid.; with 0.42 ImM EACA .smallcircle. . . . .smallcircle.. B. Enlarged inset, cadaverine produced after 16 h (limited substrate): Enzyme only .circle-solid.-.circle-solid.; with 0.42 mM EACA .smallcircle. . . . .smallcircle..
# The results of FIG. 1 were obtained when 0.1 ml of E. corrodens extract (10 μg protein/ml), or plaque extract (100 μg protein/ml) was added to 0.5×10^5 HL60 cells or 2×10^5 HeLa cells in 0.5 ml growth medium in 48-well plates (Costar, Cambridge, Mass.). The cells were incubated for 96 h at 37° C. in 5% CO2 in air, examined visually and counted on a Coulter Counter (Coulter Electronics Hialeah, Fla.). […] The samples were incubated at 43° C. for 5.0 min, vortexed with 2.0 ml toluene for 20 sec, centrifuged at 2,000 rpm for 5 min and the absorbance of the toluene layer read at 340 nm. From a standard curve, the cadaverine produced was measured and subtracted from the amount of free lysine initially in the medium plus extract after 16 h or 40 h. […]
# lysine decarboxylase [4] = target: T2, lysine decarboxylase (Escherichia coli, UniProt P0A9H3); conditions: cited from earlier work
# T2 construct: host or cells: Escherichia coli
# lysine decarboxylase [5] = target: T1, lysine decarboxylase; assay: Lysine decarboxylase activity in Selenomonas ruminantium; assay type: biochemical; conditions: half of the DL-form inhibiting values, read-out: Equivalent L inhibitory values
# lysine decarboxylase [6] = assay: Lysine decarboxylase activity in Mycoplasma dispar; assay type: biochemical; conditions: half of the DL-form inhibiting values
# T1 sequence (O50657 whole entry): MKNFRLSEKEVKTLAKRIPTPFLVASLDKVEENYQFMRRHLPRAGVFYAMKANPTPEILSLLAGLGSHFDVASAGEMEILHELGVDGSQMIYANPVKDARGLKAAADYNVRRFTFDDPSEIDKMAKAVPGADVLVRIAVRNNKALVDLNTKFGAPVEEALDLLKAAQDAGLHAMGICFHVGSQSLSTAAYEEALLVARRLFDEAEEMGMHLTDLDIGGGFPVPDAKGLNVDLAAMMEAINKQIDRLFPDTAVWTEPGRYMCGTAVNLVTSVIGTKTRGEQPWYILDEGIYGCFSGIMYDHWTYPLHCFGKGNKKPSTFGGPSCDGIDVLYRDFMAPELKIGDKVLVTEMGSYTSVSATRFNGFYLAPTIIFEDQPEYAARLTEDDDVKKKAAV
# Chain of lysine decarboxylase (Eikenella corrodens, UniProt Q9Z4R7) (Q9Z4R7 entry or part of it): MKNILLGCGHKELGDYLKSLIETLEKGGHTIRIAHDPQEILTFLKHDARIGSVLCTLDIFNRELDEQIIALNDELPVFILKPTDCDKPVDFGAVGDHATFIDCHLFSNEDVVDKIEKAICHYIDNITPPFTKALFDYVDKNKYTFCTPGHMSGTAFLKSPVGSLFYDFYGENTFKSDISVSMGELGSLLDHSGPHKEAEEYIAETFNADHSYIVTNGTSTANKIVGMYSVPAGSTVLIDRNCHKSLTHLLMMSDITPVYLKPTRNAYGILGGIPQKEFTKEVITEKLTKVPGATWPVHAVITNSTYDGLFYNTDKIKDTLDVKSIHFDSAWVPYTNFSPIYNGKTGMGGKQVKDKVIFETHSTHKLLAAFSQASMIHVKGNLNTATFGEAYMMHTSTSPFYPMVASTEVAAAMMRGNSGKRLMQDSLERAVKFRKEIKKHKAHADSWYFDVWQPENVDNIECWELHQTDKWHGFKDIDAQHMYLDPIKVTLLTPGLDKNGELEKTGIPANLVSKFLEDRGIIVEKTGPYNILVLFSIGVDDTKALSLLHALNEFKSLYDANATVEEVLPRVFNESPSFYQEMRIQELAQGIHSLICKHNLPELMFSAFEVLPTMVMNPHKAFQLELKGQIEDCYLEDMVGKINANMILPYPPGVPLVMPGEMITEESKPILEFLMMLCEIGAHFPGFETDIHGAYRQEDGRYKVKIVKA
# T2 sequence (P0A9H3 whole entry): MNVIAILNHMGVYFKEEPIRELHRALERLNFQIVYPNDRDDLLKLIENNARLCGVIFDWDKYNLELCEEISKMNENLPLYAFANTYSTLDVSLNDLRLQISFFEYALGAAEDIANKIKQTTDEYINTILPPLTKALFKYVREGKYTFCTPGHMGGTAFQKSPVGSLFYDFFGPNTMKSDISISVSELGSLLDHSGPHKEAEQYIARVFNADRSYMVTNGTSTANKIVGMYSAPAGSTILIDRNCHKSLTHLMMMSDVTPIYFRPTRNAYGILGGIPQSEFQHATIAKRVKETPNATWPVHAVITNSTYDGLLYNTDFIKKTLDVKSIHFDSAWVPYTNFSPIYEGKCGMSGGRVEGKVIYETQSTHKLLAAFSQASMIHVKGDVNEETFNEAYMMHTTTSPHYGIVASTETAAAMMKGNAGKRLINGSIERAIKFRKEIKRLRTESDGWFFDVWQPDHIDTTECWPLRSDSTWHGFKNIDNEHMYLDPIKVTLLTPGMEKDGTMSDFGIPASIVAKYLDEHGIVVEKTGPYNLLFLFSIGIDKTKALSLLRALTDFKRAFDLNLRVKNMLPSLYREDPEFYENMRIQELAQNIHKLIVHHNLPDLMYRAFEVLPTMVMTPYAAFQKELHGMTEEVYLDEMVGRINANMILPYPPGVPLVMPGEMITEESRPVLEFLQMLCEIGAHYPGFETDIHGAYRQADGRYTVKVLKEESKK
SMILES,Effect on lysine decarboxylase activity (lysine decarboxylase [1]),Effect on lysine decarboxylase activity (lysine decarboxylase [2]),Effect on growth inhibiting activity of E. corrodens extract (HL60 cells),other results
NCCCC(N)(C(=O)O)C(F)F (racemic) [DFMO],no effect,no effect,–,–
NCCCC[C@H](N)C(=O)O [lysine],–,–,decreased the growth inhibiting activity,–
"NCCCCCC(=O)O [EACA, ε-amino-n-caproic acid]",–,–,increased the growth inhibition,Effect on the E. corrodens enzyme at high lysine concentrations (lysine decarboxylase [3]; high lysine concentrations): inhibits the enzyme; Effect on the E. corrodens enzyme at low lysine concentrations (lysine decarboxylase [3]; lysine 0.22-0.72 mM as in growth media): activates the enzyme; Effect on lysine decarboxylase from E. coli (lysine decarboxylase [4]): inhibits
NCCCC[C@](N)(C(=O)O)C(F)F [L-DFML],–,–,–,IC100 (lysine decarboxylase [5]): 50 to 500 µM; Equivalent L inhibitory values (lysine decarboxylase [6]): 0.05 to 0.50 mM
N=C(N)NCCCC(N)(C(=O)O)C(F)F (racemic) [DFMR],no effect,no effect,–,–
